Values of other authors in patent US20150132440A1, “DIPEPTIDE AND TRIPEPTIDE COMPOSITIONS AND USES” (4141 HOLDINGS, LLC, priority 2013, published 2015).
Where a SMILES comes first, the peptide text is derived from it.

Assays:
L6 myotubes = details: for glucose uptake rate: L6 myotubes
[1] = system: isolated skeletal muscles
Caco-2 cells = details: for inhibition of H2O2-induced IL-8 secretion: Caco-2 cells pretreated with amino acids (1, 2, and 5 mM) for 2 hours, then 1 mM H2O2 for 6 hours, ELISA
Akt = details: supplementation
[2] = system: glucose transporter GLUT-4; details: compared with the other WPH components tested; for efficiency in translocating GLUT-4 to the PM: animal skeletal muscle
[3] = ESR technique
[4] = system: human dermal fibroblasts (HDFs); details: for protein expression levels of intracellular antioxidant enzymes SOD1, GSH and catalase: H2O2 stressed HDF cells; for H2O2 induced DNA damage / H2O2 induced ROS production / NF-κB activation: HDF cells

CC[C@H](C)[C@H](N)C(=O)N[C@@H](CC(C)C)C(=O)O [Ile-Leu, L-Isoleucyl-L-Leucine] (H-Ile-Leu-OH)
glucose uptake rate (L6 myotubes): significant stimulation | glycogen contents ([1]; isolated muscles): increased | glucose uptake ([1]; isolated skeletal muscles): stimulated

Ile-Val
glucose uptake rate (L6 myotubes): significant stimulation

CC(C)[C@H](N)C(=O)O [Val, valine]
GSH S-transferase (GST) activity (Caco-2 cells; Caco-2 cells): elevated | catalase activity (Caco-2 cells; Caco-2 cells): elevated | inhibition of H2O2-induced IL-8 secretion (Caco-2 cells): inhibition of H2O2-induced IL-8 secretion from Caco-2 cells was observed

CC[C@H](C)[C@H](N)C(=O)N[C@H](C(=O)O)[C@@H](C)CC [Ile-Ile, L-Isoleucyl-L-isoleucine] (H-Ile-Ile-OH)
glucose uptake rate (L6 myotubes): significant stimulation

CC[C@H](C)[C@H](NC(=O)[C@@H](N)CC(C)C)C(=O)O [L-Leucyl-L-isoleucine] (H-Leu-Ile-OH)
activation of Akt (Akt): activation | efficiency in translocating GLUT-4 to the PM [2]: greater efficiency | efficiency of increasing glucose capture by skeletal muscle [2]: greater efficiency

Val-Leu
glucose uptake rate (L6 myotubes): significant stimulation

Leu-Val
glucose uptake rate (L6 myotubes): significant stimulation

CC(C)C[C@H](NC(=O)[C@@H](N)CC(C)C)C(=O)O [Leu-Leu, L-Leucyl-L-leucine]
glucose uptake rate (L6 myotubes): significant stimulation

C[C@H](N)C(=O)O [Ala]
GSH reductase activity (Caco-2 cells; Caco-2 cells): enhanced | inhibition of H2O2-induced IL-8 secretion (Caco-2 cells): inhibition of H2O2-induced IL-8 secretion from Caco-2 cells was observed

N[C@@H](Cc1c[nH]c2ccccc12)C(=O)O [Trp]
GSH S-transferase (GST) activity (Caco-2 cells; Caco-2 cells): increases | inhibition of H2O2-induced IL-8 secretion (Caco-2 cells): inhibition of H2O2-induced IL-8 secretion from Caco-2 cells was observed

CN(C)CCCn1cc(C2=C(c3c[nH]c4ccccc34)C(=O)NC2=O)c2ccccc21 [GF109203X]
stimulation of glucose uptake by Ile-Leu under inhibitor treatment (L6 myotubes; L6 cells): completely inhibited | stimulation of glucose uptake by Ile-Leu under inhibitor treatment ([1]; isolated muscles): completely inhibited

NCCCC[C@H](N)C(=O)O [Lys]
GSH S-transferase (GST) activity (Caco-2 cells; Caco-2 cells): increases | inhibition of H2O2-induced IL-8 secretion (Caco-2 cells): inhibition of H2O2-induced IL-8 secretion from Caco-2 cells was observed

CC[C@H](C)[C@H](N)C(=O)O [Ile, L-isoleucine]
GSH S-transferase (GST) activity (Caco-2 cells; Caco-2 cells): elevated | catalase activity (Caco-2 cells; Caco-2 cells): elevated | inhibition of H2O2-induced IL-8 secretion (Caco-2 cells): inhibition of H2O2-induced IL-8 secretion from Caco-2 cells was observed | efficiency in translocating GLUT-4 to the PM [2]: greater efficiency | efficiency of increasing glucose capture by skeletal muscle [2]: greater efficiency

N[C@@H](Cc1c[nH]cn1)C(=O)O [His]
GSH S-transferase (GST) activity (Caco-2 cells; Caco-2 cells): increases | inhibition of H2O2-induced IL-8 secretion (Caco-2 cells): inhibition of H2O2-induced IL-8 secretion from Caco-2 cells was observed

SPP-1: peptide QLGNLGV derived from seaweed pipefish Syngnathus schlegeli
hydroxyl radical scavenging activity [3]: significant | protein expression levels of intracellular antioxidant enzymes SOD1, GSH and catalase [4]: increase | H2O2 induced DNA damage [4]: effectively suppressed | H2O2 induced ROS production [4]: effectively suppressed | NF-κB activation [4]: block

SPP-2: peptide SVMPVVA derived from seaweed pipefish Syngnathus schlegeli
hydroxyl radical scavenging activity [3]: significant | protein expression levels of intracellular antioxidant enzymes SOD1, GSH and catalase [4]: increase | H2O2 induced DNA damage [4]: effectively suppressed | H2O2 induced ROS production [4]: effectively suppressed | NF-κB activation [4]: block

CC(C)C[C@H](N)C(=O)O [Leu, L-leucine]
GSH S-transferase (GST) activity (Caco-2 cells; Caco-2 cells): elevated | catalase activity (Caco-2 cells; Caco-2 cells): elevated | inhibition of H2O2-induced IL-8 secretion (Caco-2 cells): inhibition of H2O2-induced IL-8 secretion from Caco-2 cells was observed
